Source: article PMC12081876, “Identification of PTGR2 inhibitors as a new therapeutic strategy for diabetes and obesity” (EMBO Molecular Medicine, 2025)
Values joined by “and” are separate entries in the source; they are usually repeats but may differ in a detail not shown here. Identical values can stand only once.

Assays:
[1] = system: HFHSD-fed obese C57BL6/J mice; assay: Cold tolerance test (cold-induced thermogenesis); assay type: in vivo, mouse; conditions: for interscapular area temperature, Average / interscapular area temperature: Figure 2T left panel; for interscapular area temperature, Average / rectal temperatures, Average: average of 12 mice; for interscapular area temperature, Average / interscapular area temperature / inguinal area temperature / rectal temperatures, Average / rectal temperatures: in °C (unit assumed); for interscapular area temperature / inguinal area temperature / rectal temperatures: individual mice; for inguinal area temperature: Figure 2T middle panel; for rectal temperatures, Average / rectal temperatures: Figure 2T right panel; for temperature, Figure 2T middle panel, Average: in °C
Description: For the cold tolerance test, 24-week-old mice with matched average body weight from the two groups were placed individually on HFHSD in a 4 °C chamber. The rectal temperature of the mice was measured after 0, 1, 2, 3, 4, 5, 6, 12, and 18 h. For measuring diet-induced thermogenesis, 24-week-old mice were fasted overnight for 18 h. Then, we measured their rectal temperature at 0, 30, 60, 90, 120, 150, 180, and 240 min after HFHSD refeeding. The rectal and surface temperature were detected by thermal probes (Physitemp Therma TH-5, ThermoWorks, Alpine and MicroTherma 2T, ThermoWorks, Alpine, respectively).

[2] = system: HFHSD-fed obese C57BL6/J mice; assay: Energy expenditure, food intake and physical activity (indirect calorimetry); assay type: in vivo, mouse; conditions: 40 mg/kg/day ip, vs vehicle
Description: Metabolic measurements (food and water intake, locomotor activity, VO2 consumption and VCO2 production) were obtained using the Promethion metabolic phenotyping system (Sable Systems). The mice were housed in the Promethion system with ad libitum access to food and water. Monitoring was performed for 5 days after mice have been acclimatized to the cages for 2 days.
All values were expressed as mean ± S.E.M. All reported sample sizes were biologically independent but not technically repeatedly measured. Skewed data was logarithmized to approximate normal distribution. Comparisons between two separate groups were performed using Student t-tests. Comparisons among multiple groups were conducted using a one-way analysis of variance with post hoc analyses. Statistical analyses were conducted using GraphPad Prism 8.0 and SAS 9. Energy expenditure between genotypes was analyzed using the generalized linear model according to international guidance (Speakman et al, [2013]; Tschöp et al, [2011]). Energy expenditure (expressed as kcal/hr) was regressed on body weight using the command “glm” implemented in STATA 14.0 (Speakman et al, [2013]; Tschöp et al, [2011]). Two-sided p-values < 0.05 were considered statistically significant. The sample size was determined according to our previous experience. There was no exclusion/inclusion criteria, blinding and randomization.

[3] = system: HFHSD-fed obese C57BL6/J mice; assay: Hepatic steatosis (H&E) and hepatic triglycerides content; assay type: in vivo, mouse; conditions: 100 mg/kg/day oral, vs vehicle
Description: Tissues were fixed in 4% paraformaldehyde and then embedded in paraffin before sectioning and staining. The stained sections were scanned and analyzed using a MIRAX viewer (http://www.zeiss.de/mirax) and Image J software (http://rsbwed.nih.gov/ij/).
Approximately 80 mg of liver tissue was homogenized in 1800 μl of chloroform/methanol (2/1). Then, 360 μl of H2O was added. The homogenates were centrifuged at 2000 rpm for 10 min. The lower 200-μl layer was added with 100 μl of chloroform with 4% Triton X-100 and dried in a chemical hood. The dried pellet was redissolved with 200 μl of H2O and was determined the triglyceride concentrations with Wako TG LabAssay kit (cat. no. 290-63701, Wako).

[4] = system: F4/80-positive macrophages; assay: F4/80 immunohistochemical stain of perigonadal fat; assay type: in vivo, mouse; conditions: 100 mg/kg/day oral, HFHSD-fed mice, vs vehicle
Description: Mice perigonadal fat were paraffin-embedded and the 4-µm tissue sections were cut from the paraffin blocks on the slides by Pathology core of the Institute of Biomedical Sciences, Academia Sinica. The slides were conducted immunochemistry staining using primary antibodies for F4/80 (1:200; cat#H0005972-M01, Abnova) and digitized using an Olympus BX51 microscope combined with an Olympus DP72 camera and CellSens Standard 1.14 software (Olympus, Germany).

human PTGR2 (hPTGR2) = target: T1, human PTGR2 (hPTGR2) (Homo sapiens, UniProt Q8N8N7); assay: Recombinant human PTGR2 enzymatic inhibition (NADPH-Glo), IC50; assay type: biochemical
T1 construct: made in house
Description: High-throughput compound screening was conducted at the core service in the Genomics Research Center (GRC) of Academia Sinica, Taiwan. The GRC 120 K ReSet comprises more than 125,000 compounds, selected as representatives by structural similarity clustered from the 2 M GRC compound library. The ReSet was arrayed in 1536-well plates as single compounds at 1 mM in 100% DMSO. The quality of all compounds was assured by the vendor (purity is greater than 90%) and was verified internally with 5% random sampling. Recombinant human PTGR2 protein was purified, and the screening was conducted using the NADPH-Glo Detection kit (Promega) to measure the amount of NADPH. The CV of HTS ranged from 4.8% to 6.1%, with a Z’ value of 0.7. The threshold was set as 1.5, resulting in ~300 hits for further confirmation and determination of the half-maximal inhibitory concentration (IC50). […]

T1 sequence (Q8N8N7 whole entry): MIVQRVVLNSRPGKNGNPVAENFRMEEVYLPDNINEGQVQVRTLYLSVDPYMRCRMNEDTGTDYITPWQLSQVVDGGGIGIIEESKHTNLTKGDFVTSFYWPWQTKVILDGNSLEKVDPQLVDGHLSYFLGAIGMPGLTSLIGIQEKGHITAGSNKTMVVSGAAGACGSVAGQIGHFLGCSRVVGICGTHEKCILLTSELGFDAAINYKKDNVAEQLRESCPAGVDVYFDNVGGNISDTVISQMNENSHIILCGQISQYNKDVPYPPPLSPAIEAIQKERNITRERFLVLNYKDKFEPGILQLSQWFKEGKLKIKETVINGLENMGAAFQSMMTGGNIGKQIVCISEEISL

CCCCCC(=O)/C=C/[C@H]1[C@H](O)CC(=O)[C@@H]1C/C=C\CCCC(=O)O [15-keto-PGE2, 15-keto-prostaglandin E2]
interscapular, inguinal and rectal temperatures during cold test ([1]; 40 mg/kg/day ip, vs vehicle): higher interscapular, inguinal, and rectal temperatures than vehicle controls during prolonged cold tests | interscapular area temperature, Average ([1]; period 0 hr): 38.275 | interscapular area temperature ([1]; period 0 hr): 37.4 and 37.9 and 38.2 and 38.1 and 38.9 | interscapular area temperature, Average ([1]; period 1 hr): 37.6917 | interscapular area temperature ([1]; period 1 hr): 37.1 and 37.5 and 37.2 and 37.9 and 37.4 | interscapular area temperature, Average ([1]; period 2 hr): 37.3583 | interscapular area temperature ([1]; period 2 hr): 37.4 and 37.2 and 36.9 and 37.8 and 37.6 and 36.4 | interscapular area temperature, Average ([1]; period 3 hr): 37.0083 | interscapular area temperature ([1]; period 3 hr): 37.2 and 37.1 and 36.5 and 37.3 and 37.5 and 36.4 | interscapular area temperature, Average ([1]; period 4 hr): 37.0083 | interscapular area temperature ([1]; period 4 hr): 37 and 36.8 and 37.6 and 37.3 and 36.2 | interscapular area temperature, Average ([1]; period 5 hr): 36.8917 | interscapular area temperature ([1]; period 5 hr): 36.5 and 37 and 36.7 and 36.9 and 37.1 | interscapular area temperature, Average ([1]; period 6 hr): 36.7583 | interscapular area temperature ([1]; period 6 hr): 36.2 and 36.3 and 36.9 and 37.9 and 37 | interscapular area temperature, Average ([1]; period 12 hr): 35.6833 | interscapular area temperature ([1]; period 12 hr): 36.2 and 37.5 and 34.9 and 35.7 and 35.4 | interscapular area temperature, Average ([1]; period 18 hr): 34.8333 | interscapular area temperature ([1]; period 18 hr): 36.3 and 35.5 and 33.6 and 33.9 and 35.7 | inguinal area temperature ([1]; period 0 hr): 36.2 and 36.9 and 37.2 | inguinal area temperature ([1]; period 1 hr): 36.2 and 36.8 | inguinal area temperature ([1]; period 2 hr): 35.8 and 34.9 | inguinal area temperature ([1]; period 3 hr): 35.5 and 34.7 | inguinal area temperature ([1]; period 4 hr): 35 and 34.8 | inguinal area temperature ([1]; period 5 hr): 34.9 and 34.7 | inguinal area temperature ([1]; period 6 hr): 35.2 and 34.9 | inguinal area temperature ([1]; period 12 hr): 32.9 and 34.1 | inguinal area temperature ([1]; period 18 hr): 33.2 and 33.7 | rectal temperatures, Average ([1]; period 0 hr): 37.9667 | rectal temperatures ([1]; period 0 hr): 37.6 and 38.1 and 38.5 and 37.9 and 36.3 and 38.3 and 38 | rectal temperatures, Average ([1]; period 1 hr): 37.1667 | rectal temperatures ([1]; period 1 hr): 37 and 37.2 and 37.1 and 37.3 and 36.6 and 37.4 and 37.8 and 37.6 | rectal temperatures, Average ([1]; period 2 hr): 36.6917 | rectal temperatures ([1]; period 2 hr): 37.4 and 35.2 and 36.3 and 37 and 37.2 and 36.8 and 36.6 and 36.9 and 36.1 and 36.4 | rectal temperatures, Average ([1]; period 3 hr): 36.45 | rectal temperatures ([1]; period 3 hr): 36.7 and 36 and 36.6 and 36.9 and 35.8 and 37.5 and 36.3 and 36.2 and 36.1 and 36.4 | rectal temperatures, Average ([1]; period 4 hr): 36.45 | rectal temperatures ([1]; period 4 hr): 37 and 36.2 and 36.8 and 37.2 and 36.7 and 36 and 35.7 and 36.4 | rectal temperatures, Average ([1]; period 5 hr): 36.4167 | rectal temperatures ([1]; period 5 hr): 37.6 and 36.4 and 36.3 and 36.1 and 36.5 and 36.7 and 35.8 and 36.2 | rectal temperatures, Average ([1]; period 6 hr): 36.4167 | rectal temperatures ([1]; period 6 hr): 36.8 and 36.6 and 36.4 and 35.6 and 37.3 and 36.1 and 36 and 35.5 | rectal temperatures, Average ([1]; period 12 hr): 35.6917 | rectal temperatures ([1]; period 12 hr): 35.9 and 37.5 and 34.2 and 35.3 and 37.6 and 34.5 and 35.2 and 36.3 and 37.9 | rectal temperatures, Average ([1]; period 18 hr): 34.025 | rectal temperatures ([1]; period 18 hr): 35.7 and 34.9 and 33 and 33.1 and 34.8 and 34.6 and 32 and 34.5 and 33.4 and 33.6 and 34.2 | temperature, Figure 2T middle panel, Average ([1]; time 0): 36.2 | temperature, Figure 2T middle panel, Average ([1]; time 1): 36.0083 | temperature, Figure 2T middle panel, Average ([1]; time 2): 35.325 | temperature, Figure 2T middle panel, Average ([1]; time 3): 35.0083 | temperature, Figure 2T middle panel, Average ([1]; time 4): 34.8083 | temperature, Figure 2T middle panel, Average ([1]; time 5): 34.6417 | temperature, Figure 2T middle panel, Average ([1]; time 6): 34.6417 | temperature, Figure 2T middle panel, Average ([1]; time 12): 34.375 | temperature, Figure 2T middle panel, Average ([1]; time 18): 33.2583 | energy expenditure ([2]; age 8 weeks): Higher energy expenditure | Food intake [2]: similar | physical activity [2]: similar

Cc1[nH]c2nc(C(C)N3CCN(c4ccccc4)CC3)nn2c(=O)c1Cc1ccc(F)cc1 (stereo not shown) [BPRPT0245]
extent of hepatic steatosis [3]: significantly decreased | hepatic triglycerides content [3]: significantly decreased | F4/80-positive macrophages in perigonadal fat [4]: fewer F4/80-positive macrophages | Figure 5B raw signal of the hPTGR2 inhibition dose-response (replicates) (human PTGR2 (hPTGR2); concentration 4.6 (unit not given)): 5700 and 5540 | Figure 5B raw signal of the hPTGR2 inhibition dose-response (replicates) (human PTGR2 (hPTGR2); concentration 13.7 (unit not given)): 12160 and 11080 and 9760 | Figure 5B raw signal of the hPTGR2 inhibition dose-response (replicates) (human PTGR2 (hPTGR2); concentration 41.2 (unit not given)): 25040 and 27420 and 26900 | Figure 5B raw signal of the hPTGR2 inhibition dose-response (replicates) (human PTGR2 (hPTGR2); concentration 123.5 (unit not given)): 32220 and 32000 and 34120 | Figure 5B raw signal of the hPTGR2 inhibition dose-response (replicates) (human PTGR2 (hPTGR2); concentration 370.4 (unit not given)): 37280 and 38620 and 37900 | Figure 5B raw signal of the hPTGR2 inhibition dose-response (replicates) (human PTGR2 (hPTGR2); concentration 1111.1 (unit not given)): 40200 and 38760 and 38680 | Figure 5B raw signal of the hPTGR2 inhibition dose-response (replicates) (human PTGR2 (hPTGR2); concentration 3333.3 (unit not given)): 40060 and 40940 and 40560 | Figure 5B raw signal of the hPTGR2 inhibition dose-response (replicates) (human PTGR2 (hPTGR2); concentration 10000 (unit not given)): 42020 and 40520 and 40720 | IC50 (human PTGR2 (hPTGR2); human PTGR2 enzymatic activity): 8.92 nM
